From PubChem BioAssay (NCI)
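48-hour exposure; five concentrations; linearly interpolated endpoints. The concentration for full growth arrest is given as TGI.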 Where a SMILES comes first, the peptide text is derived from it. The star is where a group is joined. Boc = CC(C)(C)OC(=O)*; OSu = O=C1CCC(=O)N1O*

Key:
Experiment in all cases: inhibition of tumour cell growth, NCI panel, 48 h
[1] = tested on: 786-0 renal
[2] = tested on: OVCAR-5 ovarian
[3] = tested on: HOP-62 NSCLC
[4] = tested on: NCI-H23 lung
[5] = tested on: SW-620 colon
[6] = tested on: UACC-62 melanoma
[7] = tested on: MOLT-4 leukemia
[8] = tested on: NCI-H522 lung
[9] = tested on: COLO 205 colon
[10] = tested on: U251 CNS
[11] = tested on: SF-539 CNS
[12] = tested on: HS 578T breast

Row | SMILES | TGI [1] | TGI [2] | TGI [3] | TGI [4] | TGI [5] | TGI [6] | TGI [7] | TGI [8] | TGI [9] | TGI [10] | TGI [11] | TGI [12]
1 | Cc1sc2nc3n(c(=O)c2c1C)N=CN(c1ccccc1)C3 | 46.5 µM | > 100 µM | 65.3 µM | > 100 µM | > 100 µM | > 100 µM | > 100 µM | > 100 µM | > 100 µM | > 100 µM | – | –
2 | CCOC(=O)c1cc(=C2\CCN(CC(C)CC)C2=S)/c(=C(/O)CC)[nH]1 (stereo unspecified) | 30.5 µM | – | – | 33.6 µM | 25.9 µM | 30.8 µM | 24.6 µM | 36.4 µM | 24.1 µM | 26.5 µM | 24.9 µM | 59.6 µM
3 | O=C(/C(=C(/Br)I)c1ccccc1)c1ccccc1 | 39.5 µM | > 100 µM | – | > 100 µM | – | 34.4 µM | 46.2 µM | – | 36.5 µM | 53.1 µM | 37.7 µM | > 100 µM
4 | Cc1c(S(=O)(=O)c2ccccc2)c(N)n(Cc2ccccc2)c1C | > 100 µM | > 100 µM | – | > 100 µM | > 100 µM | > 100 µM | > 100 µM | > 100 µM | > 100 µM | > 100 µM | > 100 µM | > 100 µM
5 | O=C1CC2(C[C@@H]3CCCCCCCCC[C@@H](C3)C2)N1 (stereo partly specified) | 30.4 µM | 29.6 µM | 32.8 µM | 31.3 µM | 33.8 µM | 30.3 µM | 37.4 µM | 33.1 µM | 30.7 µM | 30.3 µM | 30.4 µM | –
6 | CCOC(=O)c1c(NC(=O)c2ccccc2)sc2c1CCCC2 | > 100 µM | > 100 µM | – | > 100 µM | > 100 µM | > 100 µM | > 100 µM | – | > 100 µM | > 100 µM | > 100 µM | > 100 µM
7 | CCOC(=O)c1sc2nc(SC)nc3c2c1N=CN3c1ccc(Br)cc1 | > 100 µM | > 100 µM | > 100 µM | > 100 µM | > 100 µM | > 100 µM | > 100 µM | > 100 µM | > 100 µM | > 100 µM | – | > 100 µM
8 | CCOc1ccc(N/C(=C(/C(Cl)=C(/Cl)NCCN)[N+](=O)[O-])n2nnc3ccccc32)cc1 | > 100 µM | > 100 µM | > 100 µM | > 100 µM | 21.6 µM | > 100 µM | > 100 µM | – | 32.4 µM | > 100 µM | 41.9 µM | 98.2 µM
9 | COc1ccc2nc(-c3ccc(OCc4ccccc4)cc3)ccc2c1 | > 100 µM | > 100 µM | > 100 µM | > 100 µM | > 100 µM | > 100 µM | > 100 µM | > 100 µM | > 100 µM | – | > 100 µM | –
10 | O=C1CC(O)c2c1csc2Br (stereo unspecified) | 51.1 µM | > 100 µM | > 100 µM | 59.1 µM | 37.2 µM | 59 µM | 55.3 µM | 30.4 µM | 59.9 µM | 41 µM | – | 72.4 µM
11 | COc1ccc(C2C(Cl)C(=O)N2NC(=O)c2ccc(NC(C)=O)cc2)cc1 (stereo unspecified) | > 100 µM | > 100 µM | > 100 µM | > 100 µM | > 100 µM | > 100 µM | > 100 µM | > 100 µM | > 100 µM | > 100 µM | > 100 µM | –
12 | CCN(CC)CCOC(c1cc(OC)ccc1OC)c1ccc2n1-c1ccccc1OC2 (stereo unspecified) | 36.9 µM | 37.4 µM | 40.2 µM | 25.6 µM | 21.1 µM | 7.75 µM | – | 30 µM | 17.9 µM | 28.1 µM | – | 30.9 µM
13 | CCCN=C1CC(C)Nc2ccccc2N1 (stereo unspecified) | > 100 µM | > 100 µM | > 100 µM | > 100 µM | > 100 µM | > 100 µM | > 100 µM | > 100 µM | > 100 µM | > 100 µM | – | > 100 µM
14 | CCOP(=O)(OCC)[C@H](O)c1ccsc1 | > 100 µM | > 100 µM | > 100 µM | > 100 µM | > 100 µM | > 100 µM | > 100 µM | > 100 µM | > 100 µM | > 100 µM | > 100 µM | –
15 | O=c1c2c3ccccc3[nH]c2c2cccc3c2n1CCC3 | > 100 µM | > 100 µM | > 100 µM | > 100 µM | > 100 µM | > 100 µM | 86 µM | – | > 100 µM | > 100 µM | > 100 µM | > 100 µM
16 | COC1(C)CC2N(C(=O)c3ccccc3)N=C(c3ccccc3)CC2(C)O1 (stereo unspecified) | > 100 µM | > 100 µM | > 100 µM | – | > 100 µM | > 100 µM | > 100 µM | > 100 µM | – | – | > 100 µM | –
17 | COc1ccc(/C(=C/n2ccnc2)C(=O)c2ccc(OC)c(OC)c2)cc1 | > 100 µM | > 100 µM | > 100 µM | > 100 µM | > 100 µM | > 100 µM | > 100 µM | > 100 µM | > 100 µM | > 100 µM | > 100 µM | –
18 | CC1(C)CC2(C)CC1CC2O (stereo unspecified) | > 100 µM | > 100 µM | > 100 µM | > 100 µM | > 100 µM | > 100 µM | > 100 µM | – | > 100 µM | > 100 µM | > 100 µM | > 100 µM
19 | Cc1ccccc1C1OC1C(=O)c1ccccc1N (stereo unspecified) | > 100 µM | > 100 µM | – | > 100 µM | > 100 µM | > 100 µM | > 100 µM | – | > 100 µM | > 100 µM | > 100 µM | –
20 | CCOC(=O)C1=C(C)N(c2ccccc2)C2=C(C(=O)N(c3ccccc3)C2c2ccccc2)C1c1ccccc1 (stereo unspecified) | > 100 µM | > 100 µM | > 100 µM | > 100 µM | > 100 µM | > 100 µM | > 100 µM | > 100 µM | > 100 µM | > 100 µM | > 100 µM | –
21 | c1ccc([P+](CCNCCNCC[P+](c2ccccc2)(c2ccccc2)c2ccccc2)(c2ccccc2)c2ccccc2)cc1 | > 100 µM | > 100 µM | > 100 µM | > 100 µM | > 100 µM | > 100 µM | > 100 µM | – | > 100 µM | > 100 µM | > 100 µM | > 100 µM
22 | N#CCCN(c1ccc(C=Nc2cccc([N+](=O)[O-])c2)cc1)S(=O)(=O)c1ccccc1 | > 100 µM | – | > 100 µM | > 100 µM | > 100 µM | > 100 µM | > 100 µM | > 100 µM | > 100 µM | – | > 100 µM | –
23 | CO[C@@H](C(=O)OC1C=CC2(CC1)C(=O)N(C)c1ccccc12)c1ccccc1 (stereo partly specified) | > 100 µM | > 100 µM | > 100 µM | > 100 µM | > 100 µM | > 100 µM | > 100 µM | – | > 100 µM | > 100 µM | – | –
24 | CC(C)C(Sc1nc(-c2ccccc2)c(-c2ccccc2)[nH]1)C(=O)NNC(=S)Nc1ccccc1 (stereo unspecified) | 35.8 µM | 32.6 µM | 39.8 µM | 37.2 µM | 33.1 µM | 12.4 µM | 33 µM | 21.5 µM | 35.9 µM | 30 µM | 35.8 µM | –
25 | [N-]=[N+]=Nc1c(Cl)c(=O)n(-c2ccccc2)c2ccccc12 | 38.6 µM | 42.4 µM | 58.6 µM | 36.7 µM | 31 µM | 29.4 µM | 38.4 µM | – | 47.1 µM | – | 42.3 µM | 76.9 µM
26 | C[N+](C)(C)CC(=O)N/N=c1\cc(C(=O)Nc2ccc(N=O)cc2C#N)oc2cc(O)ccc12 | > 100 µM | > 100 µM | > 100 µM | > 100 µM | > 100 µM | > 100 µM | > 100 µM | > 100 µM | > 100 µM | > 100 µM | > 100 µM | –
27 | Cc1ccc(S(=O)(=O)N2CCN3C(=O)c4ccccc4C32c2ccc(F)cc2)cc1 (stereo unspecified) | > 100 µM | > 100 µM | > 100 µM | > 100 µM | > 100 µM | > 100 µM | 65.9 µM | > 100 µM | > 100 µM | > 100 µM | – | > 100 µM
28 | CCOC(=O)C(OCC1CC=CCC1)Sc1ccccc1 (stereo unspecified) | > 100 µM | > 100 µM | > 100 µM | > 100 µM | > 100 µM | > 100 µM | – | > 100 µM | > 100 µM | > 100 µM | > 100 µM | –
29 | CC(C)(C)OC(=O)NC(Cc1ccc(O)cc1)C(=O)NC(CCCCN)C(=O)NC(Cc1ccc(O)cc1)C(=O)NC(CCCCN)C(=O)ON1C(=O)CCC1=O (stereo unspecified) (Boc-YKYK-OSu; configuration not given here) | > 100 µM | > 100 µM | > 100 µM | > 100 µM | > 100 µM | > 100 µM | > 100 µM | – | > 100 µM | > 100 µM | – | > 100 µM
30 | CC(=O)OCC1OC(N2C(=O)/C(=C\c3ccc(Cl)cc3)C(N)=Nc3ccccc32)C(OC(C)=O)C(OC(C)=O)C1OC(C)=O (stereo unspecified) | 43.6 µM | > 100 µM | 85.7 µM | 68.7 µM | > 100 µM | > 100 µM | 27 µM | – | 29.8 µM | 30.5 µM | 40.8 µM | > 100 µM
